Data on one compound can be found in US20190231785A1, “PHOSPHODIESTERASE INHIBITOR TREATMENT” (Cyrano Therapeutics, Inc., priority 2012, published 2019).

The subject of series [1] is patients with hyposmia and hypogeusia. Kind of series: Subjective changes in smell and taste function by questionnaire, scale 0 to 100 (Example 8). It counts as in vivo, human. To be noted: oral 200 to 800 mg/d; of 10 patients.
Protocol: Subjective changes in smell and taste function under each study condition were measured by questionnaire before measurements of smell or taste function. Responses were graded on a scale from 0 to 100, with 0 reflecting no subjective response in overall sensory function; 100, return to normal sensory function; and values between 0 and 100 intermediate responses. Overall sensory function was defined as the ability to smell all odors and identify all tastants, although response intensity varied.
Values for the oral trial were taken from the last measurements made before discontinuation of oral drug treatment and before initiation of the intranasal trial. This period varied from 2 to 12 months after oral treatment initiation and reflected the maximal improvement in sensory function each patient experienced.
Another series has as its system patients with hyposmia. Briefly: Side effects of oral theophylline (Example 1). The settings on record: divided doses in middle of meals. The class given is in vivo, human. The text has this:
Patients were required to take the drug in divided doses in middle of meals (breakfast and lunch).

For another series, the system named is asthmatic patients. Briefly: sGaw after dry powder inhalation, dose escalating single blind study (Examples 5 and 6). The settings on record: 2 mg theophylline. How it is done:
To test this theory, asthmatic patients are enrolled in a dose escalating single blind study. On arrival to the clinic, subjects are allowed to rest for 20 minutes before baseline measurements of FEV1 (six recordings) and sGaw (five recordings) are made. Subjects receive a dry powder dispenser loaded with a dose of 2 mg theophylline or a dry powder carrier. […] After each inhalation, measurements of sGaw are made at 1, 3, 5, 10, 15, 20, 25, and 30 minutes.
On completion of the last recording, subjects inhale a 200 μg dose of salbutamol from a metered inhaler and a further measurement of sGaw is made after 15 minutes. Subjects are also monitored for coughing and are questioned about the taste of the drug.
Asthmatic patients are enrolled in a dose escalating single blind study. On arrival to the clinic, subjects are allowed to rest for 20 minutes before baseline measurements of FEV1 (six recordings) and sGaw (five recordings) are made. Subjects receive a dry powder dispenser loaded with a dose of 1 mg IBMX formulated as a dry powder or a dry powder carrier. […] After each inhalation, measurements of sGaw are made at 1, 3, 5, 10, 15, 20, 25, and 30 minutes.
On completion of the last recording, subjects inhale a 200 μg dose of salbutamol from a metered inhaler and a further measurement of sGaw mad after 15 minutes. Subjects are also be monitored for coughing and are questioned about the taste of the drug.

As to `Cn1c(=O)c2[nH]cnc2n(C)c1=O` [theophylline], the “patients reporting no improvement” value in series [1] stood at 4 patients. Moreover, in the series on patients with hyposmia, the “side effects among patients” value is listed as “generally minimal”. For the same compound, in the series with asthmatic patients, the “increase in sGaw compared with 200 μg salbutamol” value is “comparable to that produced by salbutamol”; the “sGaw above the baseline measurement after 30 minutes” value worked out at 20%; the “taste and coughing of the dry powder formulation” value is on record as “without the unpleasant taste or the induction of coughing”; the “time until sGaw baseline is reached” value worked out at 1 h.
